Values of other authors as cited in US7560446B2, “Use of angiotensin II receptor antagonists for treating acute myocardial infarction” (Novartis AG, priority 1999, dated 2009).

Conditions: preclinical; administration of the compound in acute MI; no details given

Q: With `CCCCC(=O)N(Cc1ccc(-c2ccccc2-c2nnn[nH]2)cc1)[C@H](C(=O)O)C(C)C` [valsartan, (S)—N-(1-carboxy-2-methylprop-1-yl)-N-pentanoyl-N—[2′(1H-tetrazol-5-yl)biphenyl-4-ylmethyl]amine] as the compound, how does the “size of the MI” value read?
A: reduce the size of the MI
